Assay results: ChEMBL document CHEMBL1201862, “PubChem BioAssay data set” (2004)
Where “and” joins values, the source holds several entries; their conditions need not be identical. Equal entries are not always repeated. Each block holds one compound with its values, some of them ahead of it. Calls of active or inactive are those of the source.

Legend:
[1] = target: Glycogen synthase kinase-3 alpha (Homo sapiens, UniProt P49840); assay: Inhibition of Human GSK-3 alpha Activity Measured in Biochemical System Using Microfluidics - 2063-06_Inhibitor_Dose_DryPowder_Activity. [Related pubchem assays (depositor defined):AID2709]
Sequence of Glycogen synthase kinase-3 alpha (P49840 whole entry): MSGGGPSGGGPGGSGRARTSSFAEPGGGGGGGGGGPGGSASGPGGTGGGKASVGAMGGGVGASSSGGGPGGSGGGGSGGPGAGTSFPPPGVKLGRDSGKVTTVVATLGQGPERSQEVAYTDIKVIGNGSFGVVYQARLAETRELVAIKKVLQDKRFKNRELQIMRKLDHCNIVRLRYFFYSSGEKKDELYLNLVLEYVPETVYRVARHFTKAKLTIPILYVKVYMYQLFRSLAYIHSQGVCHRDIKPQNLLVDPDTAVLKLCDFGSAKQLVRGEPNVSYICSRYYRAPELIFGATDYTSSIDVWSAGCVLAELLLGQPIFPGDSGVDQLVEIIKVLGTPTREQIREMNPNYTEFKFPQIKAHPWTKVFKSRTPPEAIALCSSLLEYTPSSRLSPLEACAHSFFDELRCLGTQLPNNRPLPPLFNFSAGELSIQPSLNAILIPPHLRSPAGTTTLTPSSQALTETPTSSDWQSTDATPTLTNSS

[2] = target: Glycogen synthase kinase-3 beta (Homo sapiens, UniProt P49841); assay: Inhibition of Human GSK-3 beta Activity Measured in Biochemical System Using Microfluidics - 2063-05_Inhibitor_Dose_DryPowder_Activity. [Related pubchem assays (depositor defined):AID2709]
Sequence of Glycogen synthase kinase-3 beta (P49841 whole entry): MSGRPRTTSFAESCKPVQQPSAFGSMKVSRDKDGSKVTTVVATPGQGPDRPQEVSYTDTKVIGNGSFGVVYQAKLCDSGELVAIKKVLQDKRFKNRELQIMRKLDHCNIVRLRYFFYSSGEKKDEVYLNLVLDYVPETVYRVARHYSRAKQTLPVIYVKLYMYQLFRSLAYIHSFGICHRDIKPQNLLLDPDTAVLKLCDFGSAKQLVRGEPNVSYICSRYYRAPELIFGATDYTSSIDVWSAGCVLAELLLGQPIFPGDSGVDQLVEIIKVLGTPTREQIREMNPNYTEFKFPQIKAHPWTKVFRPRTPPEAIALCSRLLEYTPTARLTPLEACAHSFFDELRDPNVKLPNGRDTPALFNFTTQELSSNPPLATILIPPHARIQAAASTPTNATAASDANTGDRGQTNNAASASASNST

INS1 [3] = assay: beta-cell survival under cytokine stress – INS-1E, ATP luminescence, dry powder, dose response (AID 488844); assay type: functional, cell-based; conditions: Rattus norvegicus
[4] = suppression of NO production in INS-1E cells – cell-based, Griess absorbance, dry powder, set 3, dose response (AID 488870); assay type: functional; conditions: Rattus norvegicus
INS1 [5] = assay: INS-1E mitochondrial potential loss inhibitors – cell-based, JC-1 fluorescence, dry powder, set 2, dose response (AID 488867); assay type: functional; conditions: Rattus norvegicus
INS1 [6] = assay: INS-1E mitochondrial potential rescue under cytokines – cell-based, JC-1 fluorescence ratio, dry powder, dose response (AID 488931); assay type: functional; conditions: Rattus norvegicus
[7] = NIH-3T3 fibroblast cytotoxicity, dose response, cytotoxicity control, cell-based, fluorescence, Alamar Blue, secondary assay (AID 2327); assay type: functional;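 note: NIH-3T3 mouse fibroblasts cultured with fluconazole at 8 µg/mL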
[8] = tested on: Streptococcus sp. 'group A'; assay: Streptococcus pyogenes SK(-)GAS viability under kanamycin – luminescence, BacTiterGlo, confirmation, counter-screen for streptokinase expression inhibitor project, dose response (AID 1900); assay type: functional, organism-based
[9] = fluconazole-exposed Candida albicans growth modulators – fluorescence, retest, confirmation (AID 2467); assay type: functional, cell-based
[10] = target: Serine/threonine-protein phosphatase (Candida dubliniensis (strain CD36 / CBS 7987 / NCPF 3949 / NRRLY-17841) (Yeast), UniProt B9W6M3); assay: blockers of CaCl2-induced CDRE-lacZ signaling – S. cerevisiae, luminescence, secondary, dose response (AID 2388); assay type: functional, cell-based;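 note: yeast reporter cells carrying a calcineurin-responsive lacZ construct stimulated with calcium chloride; luminescent beta-galactosidase reporter signal in whole cells rather than isolated phosphatase activity; potency for inhibition where a drop in reporter signal means calcineurin blockade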
Sequence of Serine/threonine-protein phosphatase (B9W6M3 whole entry): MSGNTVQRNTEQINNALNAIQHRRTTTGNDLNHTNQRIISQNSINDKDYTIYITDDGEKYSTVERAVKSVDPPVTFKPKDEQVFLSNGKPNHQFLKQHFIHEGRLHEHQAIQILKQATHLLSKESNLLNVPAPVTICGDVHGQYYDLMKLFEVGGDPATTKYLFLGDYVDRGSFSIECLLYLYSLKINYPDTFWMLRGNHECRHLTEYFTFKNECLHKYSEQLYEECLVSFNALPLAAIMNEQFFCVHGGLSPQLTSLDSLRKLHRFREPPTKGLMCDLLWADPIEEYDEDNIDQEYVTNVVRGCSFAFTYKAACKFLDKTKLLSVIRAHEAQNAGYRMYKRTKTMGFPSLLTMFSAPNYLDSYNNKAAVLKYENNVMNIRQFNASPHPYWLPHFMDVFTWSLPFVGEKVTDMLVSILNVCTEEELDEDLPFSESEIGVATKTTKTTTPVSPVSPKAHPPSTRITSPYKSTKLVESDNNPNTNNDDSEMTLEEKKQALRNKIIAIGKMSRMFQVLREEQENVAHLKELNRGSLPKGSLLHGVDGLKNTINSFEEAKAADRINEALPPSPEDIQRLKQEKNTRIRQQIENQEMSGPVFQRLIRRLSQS

Streptococcus = assay: GAS UMAA2166 growth inhibition – luminescence, BacTiterGlo, counter-screen for streptokinase expression inhibitor project, dose response (AID 1915); assay type: functional, organism-based;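 note: potency for reduction of bacterial viability or growth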
[11] = target: ATP-dependent molecular chaperone HSP82 (Candida albicans (strain WO-1) (Yeast), UniProt C4YTQ8); assay: steroid-induced GRE reporter decrease in yeast – S. cerevisiae, luminescence, Hsp90 inhibitor project, dose response (AID 2400); assay type: functional, cell-based;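 note: beta-galactosidase luminescence from glucocorticoid response element reporter as proxy for Hsp90 function; inhibitor potency where signal loss means Hsp90 inhibition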
Sequence of ATP-dependent molecular chaperone HSP82 (C4YTQ8 whole entry): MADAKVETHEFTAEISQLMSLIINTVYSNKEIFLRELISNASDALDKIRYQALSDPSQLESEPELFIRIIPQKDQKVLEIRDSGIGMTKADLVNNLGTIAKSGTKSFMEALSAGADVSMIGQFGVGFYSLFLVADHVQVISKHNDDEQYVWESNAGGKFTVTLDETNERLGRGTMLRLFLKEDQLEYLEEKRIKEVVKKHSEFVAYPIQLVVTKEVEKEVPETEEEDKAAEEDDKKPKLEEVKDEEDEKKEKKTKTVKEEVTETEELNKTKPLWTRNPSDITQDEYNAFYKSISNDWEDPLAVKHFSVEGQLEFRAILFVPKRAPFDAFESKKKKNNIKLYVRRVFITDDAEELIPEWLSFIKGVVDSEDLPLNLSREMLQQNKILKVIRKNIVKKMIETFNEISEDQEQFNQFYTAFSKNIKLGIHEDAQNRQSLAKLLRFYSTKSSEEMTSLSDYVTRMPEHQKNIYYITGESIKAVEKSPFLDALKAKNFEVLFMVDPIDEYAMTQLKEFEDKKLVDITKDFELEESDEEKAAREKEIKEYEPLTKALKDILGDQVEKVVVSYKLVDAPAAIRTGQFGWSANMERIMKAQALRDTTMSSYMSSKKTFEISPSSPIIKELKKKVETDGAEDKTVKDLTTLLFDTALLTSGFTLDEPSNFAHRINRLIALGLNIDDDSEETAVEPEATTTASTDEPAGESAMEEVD

Albumin = Albumin (Bos taurus, UniProt P02769); assay: Counterscreen for inhibitors of T-cell receptor (TCR)-CD3 interaction: Fluorescence-based biochemical high throughput dose response assay to identify inhibitors of T-cell receptor (TCR)-CD3 interaction using a TAMRA-labeled BSA probe.; assay type: functional
Sequence of Albumin (P02769 whole entry): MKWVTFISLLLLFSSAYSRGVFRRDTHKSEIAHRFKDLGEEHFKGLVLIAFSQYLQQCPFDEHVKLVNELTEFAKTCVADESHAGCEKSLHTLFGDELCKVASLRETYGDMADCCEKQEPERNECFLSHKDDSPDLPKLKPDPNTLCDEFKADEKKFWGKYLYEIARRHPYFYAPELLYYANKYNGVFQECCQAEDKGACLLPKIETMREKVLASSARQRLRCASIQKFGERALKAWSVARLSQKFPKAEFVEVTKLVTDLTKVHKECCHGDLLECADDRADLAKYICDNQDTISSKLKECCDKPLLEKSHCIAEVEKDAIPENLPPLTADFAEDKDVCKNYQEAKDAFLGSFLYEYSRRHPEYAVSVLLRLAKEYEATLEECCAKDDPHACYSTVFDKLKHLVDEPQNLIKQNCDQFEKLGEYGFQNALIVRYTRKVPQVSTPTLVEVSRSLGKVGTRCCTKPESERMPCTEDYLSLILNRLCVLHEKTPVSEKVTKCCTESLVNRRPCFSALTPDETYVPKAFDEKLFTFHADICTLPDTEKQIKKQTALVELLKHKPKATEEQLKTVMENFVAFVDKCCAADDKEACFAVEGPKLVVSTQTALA

A-375 [12] = assay: MITF: Counter assay: A375 proliferation Measured in Cell-Based System Using Plate Reader - 2084-03_Inhibitor_Dose_DryPowder_Activity. [Related pubchem assays (depositor defined):AID488944]; assay type: functional; conditions: Homo sapiens
A-375 [13] = assay: proliferation inhibition in MITF-low A375 cells – cell-based, cherry-pick samples, set 2, counter-screen for MITF modulator project, dose response (AID 540335); assay type: functional; conditions: Homo sapiens
[14] = target: Voltage-gated inwardly rectifying potassium channel KCNH2 (Homo sapiens, UniProt Q12809); conditions: Potency;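 note: confirmatory quantitative high-throughput screen measuring inhibition of hERG channel activity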
Sequence of Voltage-gated inwardly rectifying potassium channel KCNH2 (Q12809 whole entry): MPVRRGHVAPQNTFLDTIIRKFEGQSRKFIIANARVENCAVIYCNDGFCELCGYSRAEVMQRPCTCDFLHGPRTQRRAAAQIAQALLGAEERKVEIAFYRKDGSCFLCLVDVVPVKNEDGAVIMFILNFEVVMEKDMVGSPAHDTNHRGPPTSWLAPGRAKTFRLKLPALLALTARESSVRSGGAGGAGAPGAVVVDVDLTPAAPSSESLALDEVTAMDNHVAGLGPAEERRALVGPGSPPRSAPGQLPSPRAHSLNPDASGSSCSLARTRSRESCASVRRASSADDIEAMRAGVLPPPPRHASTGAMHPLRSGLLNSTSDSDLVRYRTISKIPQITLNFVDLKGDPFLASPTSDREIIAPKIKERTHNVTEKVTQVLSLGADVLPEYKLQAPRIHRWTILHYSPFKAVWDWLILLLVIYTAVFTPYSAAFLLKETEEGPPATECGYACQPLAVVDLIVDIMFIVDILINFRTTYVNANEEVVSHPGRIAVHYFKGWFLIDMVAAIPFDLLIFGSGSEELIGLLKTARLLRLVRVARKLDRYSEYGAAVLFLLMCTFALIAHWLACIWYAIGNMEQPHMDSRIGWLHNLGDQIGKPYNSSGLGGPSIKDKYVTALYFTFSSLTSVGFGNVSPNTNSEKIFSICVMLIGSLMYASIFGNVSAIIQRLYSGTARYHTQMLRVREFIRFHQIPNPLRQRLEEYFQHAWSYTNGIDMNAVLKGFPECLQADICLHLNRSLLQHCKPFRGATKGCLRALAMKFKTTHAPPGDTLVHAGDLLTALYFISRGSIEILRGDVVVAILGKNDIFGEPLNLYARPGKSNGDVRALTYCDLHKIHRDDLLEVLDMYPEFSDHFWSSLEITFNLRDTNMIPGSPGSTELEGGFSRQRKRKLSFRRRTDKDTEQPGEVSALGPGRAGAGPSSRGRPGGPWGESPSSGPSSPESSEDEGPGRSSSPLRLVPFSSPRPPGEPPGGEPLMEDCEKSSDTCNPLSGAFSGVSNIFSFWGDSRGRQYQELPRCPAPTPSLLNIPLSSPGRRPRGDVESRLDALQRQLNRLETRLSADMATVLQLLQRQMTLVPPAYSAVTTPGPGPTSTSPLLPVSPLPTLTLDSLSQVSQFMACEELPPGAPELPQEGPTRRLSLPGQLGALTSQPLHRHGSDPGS

- AC50 [1]: 0.828 µM (active)
- AC50 [2]: 0.246 µM (active)
SMILES: O/N=C/c1cn(-c2ccccc2)nc1-c1cccnc1

SMILES: C[C@@H]1CN([C@@H](C)CO)C(=O)c2cccc(NC(=O)Nc3cccc4ccccc34)c2O[C@H]1CN(C)S(=O)(=O)c1ccc2ncsc2c1
- AC50 (INS1 [3]): 24.9 µM (active)
- AC50 [4]: 34.6 µM (active)
- AC50 (INS1 [5]): 38.8 µM (active)
- AC50 (INS1 [6]): 176 µM (active)

SMILES: Cc1cc(C(=O)N/N=C/c2cc(Cl)cc([N+](=O)[O-])c2O)c2ccccc2n1
- EC50 [7]: 34.3 µM (active)
- EC50 [8]: 1.03 µM (active)
- EC50 [9]: 14.7 µM (active)
- EC50 [10]: > 180 µM (inactive)
- EC50 (Streptococcus): 1.51 µM (active)
- EC50 [11]: 17.5 µM (active)
- IC50 (Albumin): > 94.1 µM (inactive)

SMILES: C/C(=N\Nc1cc(N2CCOCC2)ncn1)c1ccccc1
- AC50 (A-375 [12]): > 35 µM (active)
- AC50 (A-375 [13]): > 35 µM (active)

SMILES: ClC(Cl)=C(c1ccc(Cl)cc1)c1ccc(Cl)cc1 [DICHLORODIPHENYLDICHLOROETHYLENE]
- AC50 [14]: 15.8 µM (inconclusive) and 20 µM (inconclusive)
